The text below walks through data of patent EP1247803A2, “Indolinone compounds suitable for modulation of protein kinases” (Sugen, Inc., priority 1996, dated 1998).

The experiment deals with T1, FLK-1 receptor (Mus musculus, UniProt P35918).
T1 construct: expressed in transfected cells; host or cells: NIH3T3 C7#3
T1 sequence (P35918 20-1345): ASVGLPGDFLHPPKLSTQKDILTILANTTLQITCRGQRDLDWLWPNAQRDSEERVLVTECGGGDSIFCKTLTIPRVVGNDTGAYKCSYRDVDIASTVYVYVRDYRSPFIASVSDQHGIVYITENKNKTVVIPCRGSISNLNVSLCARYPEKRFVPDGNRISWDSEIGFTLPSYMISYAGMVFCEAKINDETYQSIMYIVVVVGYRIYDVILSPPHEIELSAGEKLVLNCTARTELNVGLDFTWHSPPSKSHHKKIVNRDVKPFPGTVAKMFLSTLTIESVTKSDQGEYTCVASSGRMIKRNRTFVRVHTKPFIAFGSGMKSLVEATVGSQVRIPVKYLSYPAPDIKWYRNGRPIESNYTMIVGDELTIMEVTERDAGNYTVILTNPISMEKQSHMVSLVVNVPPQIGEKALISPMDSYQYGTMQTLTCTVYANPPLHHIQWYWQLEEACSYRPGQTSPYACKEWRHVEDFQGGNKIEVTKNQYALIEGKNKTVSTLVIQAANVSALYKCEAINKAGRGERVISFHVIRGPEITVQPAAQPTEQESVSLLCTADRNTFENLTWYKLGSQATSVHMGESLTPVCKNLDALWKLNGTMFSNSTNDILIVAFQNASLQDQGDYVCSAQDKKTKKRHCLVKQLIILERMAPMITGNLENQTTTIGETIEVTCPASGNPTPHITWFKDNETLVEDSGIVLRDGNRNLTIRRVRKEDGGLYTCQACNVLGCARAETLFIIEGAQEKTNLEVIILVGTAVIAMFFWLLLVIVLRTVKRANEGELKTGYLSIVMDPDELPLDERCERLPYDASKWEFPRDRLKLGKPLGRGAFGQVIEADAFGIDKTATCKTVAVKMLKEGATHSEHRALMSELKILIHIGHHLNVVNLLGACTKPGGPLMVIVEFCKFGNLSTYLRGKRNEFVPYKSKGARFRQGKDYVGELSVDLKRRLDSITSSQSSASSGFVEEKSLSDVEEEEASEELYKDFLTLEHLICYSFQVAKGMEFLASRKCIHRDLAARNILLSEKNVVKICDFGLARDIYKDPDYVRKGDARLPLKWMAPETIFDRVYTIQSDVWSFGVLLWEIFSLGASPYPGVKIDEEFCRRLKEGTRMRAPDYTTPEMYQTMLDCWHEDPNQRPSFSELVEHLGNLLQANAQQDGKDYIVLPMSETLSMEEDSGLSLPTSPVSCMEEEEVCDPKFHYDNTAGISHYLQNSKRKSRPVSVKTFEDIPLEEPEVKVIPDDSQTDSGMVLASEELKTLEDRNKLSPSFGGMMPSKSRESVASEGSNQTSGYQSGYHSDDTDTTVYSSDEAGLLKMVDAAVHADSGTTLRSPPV
Briefly: FLK-1 ELISA (kinase activity of the FLK-1 receptor in FLK-1/NIH3T3 cells, VEGF stimulated). Set-up: concentration or dose not given beside the values. It is filed as cell-based. Put shortly:
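An ELISA using affinity-purified rabbit anti-FLK-1 antiserum on anti-rabbit IgG-coated plates measured VEGF-stimulated FLK-1 kinase activity. NIH3T3 C7#3 cells carrying FLK-1 were serum-starved (0.1% FBS) overnight, then exposed to compound (final 1:200 dilution, 0.5% DMSO) for two hours at 37 °C.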
With `Cc1cc(C=C2C(=O)Nc3ccc(S(=O)(=O)Nc4ccc(C(F)(F)F)cc4)cc32)oc1C` [10730/E11], the “Fik Kinase %Inhibition” value is recorded as 29.1%.
Regarding `COc1ccc(C=C2C(=O)Nc3ccc(S(=O)(=O)N4CCOCC4)cc32)c(OC)c1OC` [10730/F02], the “Fik Kinase %Inhibition” value is on record as 18.4%.
Turning to `COc1cc(OC)c(OC)cc1C=C1C(=O)Nc2ccc(S(=O)(=O)N3CCOCC3)cc21` [10730/F03], the “Fik Kinase %Inhibition” value worked out at 11.7%.
Turning to `COc1cc(C=C2C(=O)Nc3ccc(S(=O)(=O)N4CCOCC4)cc32)cc(OC)c1OC` [10730/F04], the “Fik Kinase %Inhibition” value turned out to be 18.3%.
The value for `CC(=O)n1cc(C=C2C(=O)Nc3ccc(S(=O)(=O)N4CCOCC4)cc32)c2ccccc21` [10730/F05] was 19.6%.
As for `O=C1Nc2ccc(S(=O)(=O)N3CCOCC3)cc2C1=Cc1coc2ccc(Cl)cc2c1=O` [10730/F06], the “Fik Kinase %Inhibition” value came to 21.9%.
Consider `O=C1Nc2ccc(S(=O)(=O)N3CCOCC3)cc2C1=Cc1ccc(-c2ccccc2Cl)o1` [10730/F07], for which the “Fik Kinase %Inhibition” value was 67.5%.
The value for `O=C1Nc2ccc(S(=O)(=O)N3CCOCC3)cc2C1=Cc1cc2ccccc2nc1Cl` [10730/F08] was 2.1%.
